Laboratory results taken from patent publication US7214707B2, “Dimeric compounds and their use as anti-viral agents” (Biota Scientific Management Pty Ltd., priority 2001, dated 2007).
Converted amounts (≈) assume the structure as drawn. Counter-ions that a name gives are not always drawn. Like-named read-outs stand apart in the source and are kept apart here.

Columns and labels:
[1] = system: A/Sydney/5/97 BVLV015 (H3N2); test: Plaque reduction assay (PRA) in MDCK cells; format: cell-based; conditions: Influenza A virus, read-out: EC50 PRA A/Syd
[2] = Rat lung retention after intra-tracheal dosing (long duration of action); conditions: in vivo
Experimental: Rodents are anaesthetised and dosed with compound of interest by the intra-tracheal route at a dose volume of 0.8 ml/kg. The rodent is then held in the vertical position until full recovery is achieved. […] Any analytical method suitable for detection of this type of compound may be used. The time at which levels of compound fall below the sensitivity of the analytical techniques identified will determine the residency time of the compound in lung tissue.
Please note that all experiments included a co-dosed internal standard, namely compound 3 of International Patent Publication No. WO 02/20514, to permit comparison. The data are expressed as a ratio with respect to this compound, the structure of which is shown below.
The data for compound A is included for comparison purposes.

[3] = system: Influenza B/Harbin/7/95; test: Cytopathic effect (CPE) assay in MDCK cells, MTT readout; format: cell-based, influenza virus; conditions: concentration inhibiting CPE by 50%, up to 72 hours
[4] = system: Influenza A/Sydney/5/97; test: as above; format: cell-based, influenza virus; conditions: concentration inhibiting CPE by 50%, up to 72 hours
[5] = system: B/Yamanashi/166/98 BVLV007; test: Plaque reduction assay (PRA) in MDCK cells; format: cell-based; conditions: influenza B virus, read-out: EC50 PRA B/Yam, reduces plaque numbers by 50%, MDCK cells
[6] = system: B/Hong Kong/5/72 BVLV012; test: Plaque reduction assay (PRA) in MDCK cells; format: cell-based, influenza virus; conditions: read-out: EC50 PRA B/HongK
[7] = system: A/New Caledonia/20/99 BVLV008 (H1N1); test: Plaque reduction assay (PRA) in MDCK cells; format: cell-based; conditions: Influenza A virus, read-out: EC50 PRA A/New
[8] = system: A/Bayem/7/95 BVL006 (H1N1); test: Plaque reduction assay (PRA) in MDCK cells; format: cell-based; conditions: Influenza A virus, read-out: EC50 PRA A/Bay
[9] = system: A/Victoria/3/75 BVLV017 (H3N2); test: Plaque reduction assay (PRA) in MDCK cells; format: cell-based; conditions: Influenza A virus, read-out: EC50 PRA A/Vic
[10] = system: B/Harbin/7/95 BVLV008; test: Plaque reduction assay (PRA) in MDCK cells; format: cell-based, influenza virus; conditions: read-out: EC50 PRA B/Harb
[11] = system: A/WSN/33 BVLV09 (H1N1); test: Plaque reduction assay (PRA) in MDCK cells; format: cell-based; conditions: Influenza A virus, read-out: EC50 PRA A/WSN
[12] = system: A/Panama/2007/99 BVLV008 (H3N2); test: Plaque reduction assay (PRA) in MDCK cells; format: cell-based; conditions: Influenza A virus, read-out: EC50 PRA A/Pan
[13] = reduces plaque numbers by 50%, MDCK cells

Structure (SMILES): CC(=O)N[C@H]1[C@H]([C@H](OC(=O)NCc2ccc(-c3ccc(CNC(=O)O[C@@H]([C@@H]4OC(C(=O)O)=C[C@H](NC(=N)N)[C@H]4NC(C)=O)[C@H](O)CO)cc3)cc2)[C@H](O)CO)OC(C(=O)O)=C[C@@H]1NC(=N)N [Example 9, (2R,3R,4S)-3-(acetylamino)-2-{(1R,2R)-1-[({[(4′-{[({[(1R,2R)-1-((2R,3R,4S)-3-(acetylamino)-4-{[amino(imino)methyl]amino}-6-carboxy-3,4-dihydro-2H-pyran-2-yl)-2,3-dihydroxypropyl]oxy}carbonyl)amino]methyl}-1,1′-biphenyl-4-yl)methyl]amino}carbonyl)oxy]-2,3-dihydroxypropyl}-4-{[amino(imino)methyl]amino}-3,4-dihydro-2H-pyran-6-carboxylic Acid bis TFA Salt]
- EC50 [1, 13]: 3.7 ng/mL
- Ratio Mean (lung) (cmpd)/PCT AU01/01128 compound 3 ([2]; 0.1 mg/kg, 48 h): 0.52
- Ratio Mean (lung) (cmpd)/PCT AU01/01128 compound 3 ([2]; 0.1 mg/kg, 168 h): 0.45
- concentration at 48 h ([2]; 0.1 mg/kg, Mean (cmpd) ng/g): 1400 ng/g
- concentration at 168 h ([2]; 0.1 mg/kg, Mean (cmpd) ng/g): 835 ng/g
- ID50 B/Harbin/7/95 [3]: 0.08 ng/mL
- ID50 A/Sydney/5/97 [4]: >100 ng/mL
- EC50 [5]: 0.006 ng/mL
- EC50 [6]: 0.23 ng/mL
- EC50 [7, 13]: 0.003 ng/mL
- EC50 ([8]; H1N1, reduces plaque numbers by 50%, MDCK cells): > 1 ng/mL

Structure (SMILES): CC(=O)N[C@H]1[C@H]([C@H](OC(=O)Nc2ccc(Cc3ccc(NC(=O)O[C@@H]([C@@H]4OC(C(=O)O)=C[C@H](NC(=N)N)[C@H]4NC(C)=O)[C@H](O)CO)cc3)cc2)[C@H](O)CO)OC(C(=O)O)=C[C@@H]1NC(=N)N [Example 8, (2R,3R,4S)-3-(acetylamino)-2-{(1R,2R)-1-[({[4-({4-[({[(1R,2R)-1-((2R,3R,4S)-3-(acetylamino)-4-{[amino(imino)methyl]amino}-6-carboxy-3,4-dihydro-2H-pyran-2-yl)-2,3-dihydroxypropyl]oxy}carbonyl)amino]phenyl}methyl)phenyl]amino}carbonyl)oxy]-2,3-dihydroxypropyl}-4-{[amino(imino)methyl]amino}-3,4-dihydro-2H-pyran-6-carboxylic Acid bis TFA Salt]
- EC50 [9, 13]: 0.003 ng/mL
- EC50 [10]: < 0.0001 ng/mL
- Ratio Mean (lung) (cmpd)/PCT AU01/01128 compound 3 ([2]; 0.4 mg/kg, 48 h): 1.05
- (lung) ([2]; 0.4 mg/kg, 168 h): 3571 ng/g
- Ratio Mean (lung) (cmpd)/PCT AU01/01128 compound 3 ([2]; 0.4 mg/kg, 168 h): 2.28
- concentration at 48 h ([2]; 0.4 mg/kg, (lung) ng/g): 3800 ng/g
- concentration at 168 h ([2]; 0.4 mg/kg, (lung) ng/g): 3230 ng/g
- concentration at 48 h ([2]; 0.4 mg/kg, Mean (lung) ng/g): 3250 ng/g
- concentration at 168 h ([2]; 0.4 mg/kg, Mean (lung) ng/g): 3400 ng/g
- ID50 B/Harbin/7/95 [3]: <0.05 ng/mL
- ID50 A/Sydney/5/97 [4]: 13 ng/mL
- EC50 [5]: 0.02 ng/mL
- EC50 [7, 13]: 0.0001 ng/mL

Structure (SMILES): CC(=O)N[C@H]1[C@H]([C@H](OC(=O)NCCc2cccc(CCNC(=O)O[C@@H]([C@@H]3OC(C(=O)O)=C[C@H](NC(=N)N)[C@H]3NC(C)=O)[C@H](O)CO)c2)[C@H](O)CO)OC(C(=O)O)=C[C@@H]1NC(=N)N [Example 1, (2R,3R,4S)-3-(acetylamino)-2-{(1R,2R)-1-[({[2-(3-{2-[({[(1R,2R)-1-((2R,3R,4S)-3-(acetylamino)-4-{[amino(imino)methyl]amino}-6-carboxy-3,4-dihydro-2H-pyran-2-yl)-2,3-dihydroxypropyl]oxy}carbonyl)amino]ethyl}phenyl)ethyl]amino}carbonyl)oxy]-2,3-dihydroxypropyl}-4-{[amino(imino)methyl]amino}-3,4-dihydro-2H-pyran-6-carboxylic Acid]
- ID50 B/Harbin/7/95 [3]: 0.2 ng/mL (≈ 0.227 nM)
- ID50 A/Sydney/5/97 [4]: 84 ng/mL (≈ 95.4 nM)

Structure (SMILES): CC(=O)N[C@H]1[C@H]([C@H](O)[C@H](O)CO)OC(C(=O)O)=C[C@@H]1N=C(N)N [Compound A, 4-guanidino-2-deoxy-2,3-dehydro-N-acetylneuraminic acid, reference compound]
- EC50 [11]: 56 ng/mL (≈ 169 nM)
- EC50 [9]: 5.5 ng/mL (≈ 16.6 nM)
- EC50 [10]: 0.19 ng/mL (≈ 0.572 nM)
- EC50 [1]: 2.4 ng/mL (≈ 7.22 nM)
- EC50 [12]: 2.7 ng/mL (≈ 8.12 nM)
- Ratio Mean (lung) (cmpd)/PCT AU01/01128 compound 3 ([2]; 0.1 mg/kg, 48 h): 0.26
- Ratio Mean (lung) (cmpd)/PCT AU01/01128 compound 3 ([2]; 0.1 mg/kg, 168 h): 0.08
- EC50 [6]: 21 ng/mL (≈ 63.2 nM)
- EC50 [7]: 0.27 ng/mL (≈ 0.812 nM)
- EC50 ([8]; H1N1, MDCK): 35 ng/mL (≈ 105 nM)

Structure (SMILES): CC(=O)N[C@H]1[C@H]([C@H](OC(=O)NCCc2ccc(CCNC(=O)O[C@@H]([C@@H]3OC(C(=O)O)=C[C@H](NC(=N)N)[C@H]3NC(C)=O)[C@H](O)CO)cc2)[C@H](O)CO)OC(C(=O)O)=C[C@@H]1NC(=N)N [Example 2, (2R,3R,4S)-3-(acetylamino)-2-{(1R,2R)-1-[({[2-(4-{2-[({[(1R,2R)-1-((2R,3R,4S)-3-(acetylamino)-4-{[amino(imino)methyl]amino}-6-carboxy-3,4-dihydro-2H-pyran-2-yl)-2,3-dihydroxypropyl]oxy}carbonyl)amino]ethyl}phenyl)ethyl]amino}carbonyl)oxy]-2,3-dihydroxypropyl}-4-{[amino(imino)methyl]amino}-3,4-dihydro-2H-pyran-6-carboxylic Acid]
- Ratio Mean (lung) (cmpd)/PCT AU01/01128 compound 3 ([2]; 0.1 mg/kg, 48 h): 0.44
- Ratio Mean (lung) (cmpd)/PCT AU01/01128 compound 3 ([2]; 0.1 mg/kg, 168 h): 0.34
- concentration at 48 h ([2]; 0.1 mg/kg, (cmpd) ng/g): 740 ng/g
- concentration at 48 h ([2]; 0.1 mg/kg, Mean (cmpd) ng/g): 603 ng/g
- concentration at 168 h ([2]; 0.1 mg/kg, Mean (cmpd) ng/g): 259 ng/g

Structure (SMILES): NC12CC3CC(CC(C3)C1)C2 [Amantadine]
- EC50 [9, 13]: 220 ng/mL (≈ 1450 nM)
- EC50 [12, 13]: 157 ng/mL (≈ 1040 nM)
- EC50 [6]: > 10000 ng/mL
- EC50 [7, 13]: 11 ng/mL (≈ 72.7 nM)

Structure (SMILES): CC(=O)N[C@H]1[C@H]([C@H](OC(=O)NCc2ccc(S(=O)(=O)c3ccc(CNC(=O)O[C@@H]([C@@H]4OC(C(=O)O)=C[C@H](NC(=N)N)[C@H]4NC(C)=O)[C@H](O)CO)cc3)cc2)[C@H](O)CO)OC(C(=O)O)=C[C@@H]1NC(=N)N [Example 4, (2R,3R,4S)-3-(acetylamino)-2-[(1R,2R)-1-({[({4-[(4-{[({[(1R,2R)-1((2R,3R,4S)-3-(acetylamino)-4-{[amino(imino)methyl]amino}-6-carboxy-3,4-dihydro-2H-pyran-2-yl)-2,3-dihydroxypropyl]oxy}-carbonyl)amino]methyl}phenyl)sulfonyl]phenyl}methyl)amino]carbonyl}oxy)-2,3-dihydroxypropyl]-4-{[amino(imino)methyl]amino}-3,4-dihydro-2H-pyran-6-carboxylic Acid]
- ID50 B/Harbin/7/95 [3]: <0.05 ng/mL
- ID50 A/Sydney/5/97 [4]: >100 ng/mL

Structure (SMILES): CCOC(=O)C1=C[C@@H](OC(CC)CC)[C@H](NC(C)=O)[C@@H](N)C1 [Oseltamivir]
- EC50 [9, 13]: 0.11 ng/mL (≈ 0.352 nM)
- EC50 [12, 13]: 0.3 ng/mL (≈ 0.96 nM)
- EC50 [5]: 0.7 ng/mL (≈ 2.24 nM)
- EC50 [6]: 32 ng/mL (≈ 102 nM)
- EC50 [7, 13]: 0.23 ng/mL (≈ 0.736 nM)
